Activity calls are given as the source filed them.
How the values were obtained:
[1] = target: T1, Low molecular weight phosphotyrosine protein phosphatase (Homo sapiens, UniProt P24666); format: functional; settings: read-out: IC50_Mean;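 note: Dose-response confirmation assay measuring inhibition of LMPTP enzyme activity by fluorescence intensity read-out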
T1 sequence (P24666 whole entry): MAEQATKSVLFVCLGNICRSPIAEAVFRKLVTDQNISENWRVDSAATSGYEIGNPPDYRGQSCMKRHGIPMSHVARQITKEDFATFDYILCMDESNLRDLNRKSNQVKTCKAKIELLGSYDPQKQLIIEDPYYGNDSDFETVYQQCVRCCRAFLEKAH

[2] = target: T2, Short transient receptor potential channel 4 (Mus musculus, UniProt Q9QUQ5); assay: block of DAMGO-driven TRPC4 calcium entry – cell-based, HEK293 TRPC4/mu-opioid, Fluo-4 calcium, dose response (AID 434942); format: functional;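 note: potency of inhibitors blocking the TRPC4 calcium response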
T2 sequence (Q9QUQ5 whole entry): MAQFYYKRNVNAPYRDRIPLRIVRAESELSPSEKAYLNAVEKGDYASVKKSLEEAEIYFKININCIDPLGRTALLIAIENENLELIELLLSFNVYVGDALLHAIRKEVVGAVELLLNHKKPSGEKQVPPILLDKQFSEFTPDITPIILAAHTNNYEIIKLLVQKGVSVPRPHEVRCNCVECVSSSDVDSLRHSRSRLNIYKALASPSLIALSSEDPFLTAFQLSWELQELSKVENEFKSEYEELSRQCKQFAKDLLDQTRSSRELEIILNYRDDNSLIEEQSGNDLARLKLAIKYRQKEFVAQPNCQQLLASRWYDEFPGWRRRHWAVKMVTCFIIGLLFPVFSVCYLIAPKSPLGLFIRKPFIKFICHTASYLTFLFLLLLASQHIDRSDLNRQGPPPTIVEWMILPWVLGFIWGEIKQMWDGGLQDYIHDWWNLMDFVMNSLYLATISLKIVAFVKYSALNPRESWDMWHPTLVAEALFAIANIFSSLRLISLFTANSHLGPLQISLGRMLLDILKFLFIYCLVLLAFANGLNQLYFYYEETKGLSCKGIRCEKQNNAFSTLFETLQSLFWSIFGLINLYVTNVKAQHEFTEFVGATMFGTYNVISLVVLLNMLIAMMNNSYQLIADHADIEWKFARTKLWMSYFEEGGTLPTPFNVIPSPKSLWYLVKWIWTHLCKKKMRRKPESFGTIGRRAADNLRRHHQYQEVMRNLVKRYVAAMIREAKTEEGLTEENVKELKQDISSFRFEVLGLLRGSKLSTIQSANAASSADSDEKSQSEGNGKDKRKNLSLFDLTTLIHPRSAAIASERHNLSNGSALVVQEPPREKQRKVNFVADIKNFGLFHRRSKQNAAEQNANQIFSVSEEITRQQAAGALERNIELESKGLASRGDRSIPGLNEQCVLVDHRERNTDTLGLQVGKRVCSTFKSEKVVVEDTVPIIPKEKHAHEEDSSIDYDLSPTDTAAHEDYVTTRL

cells [3] = format: functional, cell-based
cells [4] = format: functional, cell-based; remark: listed apart in the source
Nonstructural protein 1 = Nonstructural protein 1 (Influenza A virus, UniProt Q194T2); format: functional, Influenza A virus (A/California/07/2009(H1N1))
Genome polyprotein = Genome polyprotein (dengue virus type 2, UniProt P29990); assay: flavivirus cap methylation enzyme inhibition – biochemical, confirmation dose response, primary screen (AID 588689); format: functional
[5] = target: T3, Corticotropin-releasing factor receptor 2/Corticotropin-releasing factor-binding protein (Homo sapiens, UniProt P24387+Q13324); assay: activators of CRF receptor 2 with binding protein – uHTS hits, confirmation (AID 602473); format: functional; settings: read-out: EC50_Mean
T3 sequence (Q13324 whole entry): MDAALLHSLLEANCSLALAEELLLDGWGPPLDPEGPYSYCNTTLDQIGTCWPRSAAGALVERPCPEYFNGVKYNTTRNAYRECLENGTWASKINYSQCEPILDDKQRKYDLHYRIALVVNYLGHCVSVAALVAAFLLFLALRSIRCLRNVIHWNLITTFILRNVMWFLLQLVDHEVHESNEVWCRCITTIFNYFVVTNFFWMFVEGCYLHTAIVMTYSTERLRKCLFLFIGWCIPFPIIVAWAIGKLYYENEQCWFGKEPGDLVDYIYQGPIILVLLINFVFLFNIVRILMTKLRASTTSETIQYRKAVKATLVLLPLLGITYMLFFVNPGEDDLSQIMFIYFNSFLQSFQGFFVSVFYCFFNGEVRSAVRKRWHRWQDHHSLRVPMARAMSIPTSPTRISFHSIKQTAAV
T3 sequence (P24387 whole entry): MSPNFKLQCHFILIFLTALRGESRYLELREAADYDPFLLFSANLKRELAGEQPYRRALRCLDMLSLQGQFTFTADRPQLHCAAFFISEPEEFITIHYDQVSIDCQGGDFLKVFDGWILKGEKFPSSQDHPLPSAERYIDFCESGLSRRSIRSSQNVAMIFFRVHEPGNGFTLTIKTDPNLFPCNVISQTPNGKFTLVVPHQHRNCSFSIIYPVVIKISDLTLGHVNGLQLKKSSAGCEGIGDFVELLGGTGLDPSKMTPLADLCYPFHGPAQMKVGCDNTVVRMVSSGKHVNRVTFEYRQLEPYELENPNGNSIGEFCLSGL

[6] = target: T3, Corticotropin-releasing factor receptor 2/Corticotropin-releasing factor-binding protein; assay: Dose Response confirmation of uHTS hits for small molecule antagonists of the CRF-binding protein and CRF-R2 receptor complex.; format: functional; settings: read-out: IC50_Mean
[7] = HEK-293T cell viability reduction – luminescence, B-cell screen hits, cytotoxicity control for BCR NF-kB inhibitor project, dose response (AID 489021); format: functional, cell-based;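 note: HEK-293T cells carrying an NF-kB luciferase reporter; cells exposed to compound for about 14 hours before viability readout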
[8] = DRD fibroblast viability loss – cell-based, non-viral oncogenic, luminescence, dose response (AID 1934); format: functional; settings: Homo sapiens
INS1 = assay: INS-1E survival protection against cytokine death – cell-based, luminescence, retest, dose response (AID 449756); format: functional; settings: Rattus norvegicus;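 note: cell death triggered by IL-1 beta plus TNF-alpha plus IFN-gamma mixture; protective hits raise ATP signal compared with cytokine alone wells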
BJ [9] = assay: BJ-TERT fibroblast viability loss – cell-based, RAS-independent, luminescence, dose response (AID 1933); format: functional; settings: Homo sapiens
BJ [10] = assay: BJ-TERT-LT-ST fibroblast viability loss – cell-based, RAS-independent, luminescence, dose response (AID 1935); format: functional; settings: Homo sapiens;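 note: BJ fibroblasts immortalized with TERT plus LT and ST oncogenes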
[11] = NIH3T3 cell viability loss – ATP luminescence, mouse fibroblasts, counter-screen, dose response (AID 2010); format: functional, cell-based;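 note: cells exposed to compound for about 90 hours before reading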
BJ [12] = assay: cells; format: functional, cell-based; settings: Homo sapiens
[13] = Trypanosoma cruzi growth suppression in host cells – NIH3T3 host cells, beta-gal luminescence, confirmation (AID 2044); format: functional, cell-based;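 note: intracellular parasites grown in NIH/3T3 mouse fibroblasts as host cells; luminescent beta-galactosidase reporter signal from transgenic T. cruzi replicating inside host cells; inhibitors lower the luminescence signal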
[14] = target: T4, Ubiquitin-conjugating enzyme E2 N (Homo sapiens, UniProt P61088); format: functional;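 note: Dose-response confirmation in a TR-FRET assay detecting UBC13-driven polyubiquitin chain formation, inhibition measured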
T4 sequence (P61088 whole entry): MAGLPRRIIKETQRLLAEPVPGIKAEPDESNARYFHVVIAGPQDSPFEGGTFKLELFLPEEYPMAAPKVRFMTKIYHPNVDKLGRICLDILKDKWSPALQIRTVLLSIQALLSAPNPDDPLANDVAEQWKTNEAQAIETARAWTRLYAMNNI

Protein Wnt-3a = Protein Wnt-3a (Mus musculus, UniProt P27467); assay: antagonism of Wnt3a pathway luciferase reporter – Wnt-LIGHT cells, luminescence, selectivity assay for Gli-SUFU antagonist project, dose response (AID 651570); format: functional; settings: read-out: IC50_Mean;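 note: Wnt-LIGHT reporter cells stimulated with conditioned medium from Wnt3a-producing cells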
[15] = target: T5, Histone-lysine N-methyltransferase NSD2 (Homo sapiens, UniProt O96028); format: biochemical
T5 sequence (O96028 whole entry): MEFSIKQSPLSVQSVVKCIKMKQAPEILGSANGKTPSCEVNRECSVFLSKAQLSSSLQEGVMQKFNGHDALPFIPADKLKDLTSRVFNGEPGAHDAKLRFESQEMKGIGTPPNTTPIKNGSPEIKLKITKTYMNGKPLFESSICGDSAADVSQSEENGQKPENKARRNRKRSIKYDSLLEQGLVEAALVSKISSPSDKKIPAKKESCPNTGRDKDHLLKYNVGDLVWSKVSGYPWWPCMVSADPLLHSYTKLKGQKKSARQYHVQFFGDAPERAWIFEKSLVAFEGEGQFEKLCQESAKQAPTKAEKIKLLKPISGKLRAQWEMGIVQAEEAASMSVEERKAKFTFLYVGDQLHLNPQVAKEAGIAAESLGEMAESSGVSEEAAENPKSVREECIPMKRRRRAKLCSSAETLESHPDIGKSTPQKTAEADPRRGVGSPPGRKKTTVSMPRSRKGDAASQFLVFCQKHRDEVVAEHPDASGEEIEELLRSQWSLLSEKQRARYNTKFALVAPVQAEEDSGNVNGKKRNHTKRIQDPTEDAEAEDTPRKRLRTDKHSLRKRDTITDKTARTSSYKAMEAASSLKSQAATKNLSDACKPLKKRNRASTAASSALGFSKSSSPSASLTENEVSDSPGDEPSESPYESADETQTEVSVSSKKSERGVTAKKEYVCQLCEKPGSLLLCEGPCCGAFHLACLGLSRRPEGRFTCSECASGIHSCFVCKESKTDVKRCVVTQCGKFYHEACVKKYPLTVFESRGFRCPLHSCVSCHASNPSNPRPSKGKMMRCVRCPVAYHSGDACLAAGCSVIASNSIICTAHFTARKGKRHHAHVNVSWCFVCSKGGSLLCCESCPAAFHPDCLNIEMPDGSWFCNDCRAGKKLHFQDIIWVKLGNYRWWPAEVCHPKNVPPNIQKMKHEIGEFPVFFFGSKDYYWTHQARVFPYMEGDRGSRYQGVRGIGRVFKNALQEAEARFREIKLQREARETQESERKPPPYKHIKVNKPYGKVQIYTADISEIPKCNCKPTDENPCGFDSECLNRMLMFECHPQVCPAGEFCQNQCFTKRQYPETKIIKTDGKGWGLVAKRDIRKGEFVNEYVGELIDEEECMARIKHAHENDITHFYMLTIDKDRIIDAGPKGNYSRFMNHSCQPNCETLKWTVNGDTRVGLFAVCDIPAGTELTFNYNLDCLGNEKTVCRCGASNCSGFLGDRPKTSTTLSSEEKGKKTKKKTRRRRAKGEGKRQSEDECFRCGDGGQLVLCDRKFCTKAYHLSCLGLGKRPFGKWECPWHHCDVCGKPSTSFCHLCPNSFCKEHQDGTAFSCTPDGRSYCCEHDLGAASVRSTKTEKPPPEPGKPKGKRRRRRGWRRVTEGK

Nonstructural protein 1, sequence (Q194T2 whole entry): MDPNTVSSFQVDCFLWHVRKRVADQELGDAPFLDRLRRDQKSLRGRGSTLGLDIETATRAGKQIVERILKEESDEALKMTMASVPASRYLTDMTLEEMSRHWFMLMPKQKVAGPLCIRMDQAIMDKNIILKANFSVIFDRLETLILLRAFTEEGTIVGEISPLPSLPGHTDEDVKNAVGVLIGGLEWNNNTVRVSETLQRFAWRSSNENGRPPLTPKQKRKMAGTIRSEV
Protein Wnt-3a, sequence (P27467 whole entry): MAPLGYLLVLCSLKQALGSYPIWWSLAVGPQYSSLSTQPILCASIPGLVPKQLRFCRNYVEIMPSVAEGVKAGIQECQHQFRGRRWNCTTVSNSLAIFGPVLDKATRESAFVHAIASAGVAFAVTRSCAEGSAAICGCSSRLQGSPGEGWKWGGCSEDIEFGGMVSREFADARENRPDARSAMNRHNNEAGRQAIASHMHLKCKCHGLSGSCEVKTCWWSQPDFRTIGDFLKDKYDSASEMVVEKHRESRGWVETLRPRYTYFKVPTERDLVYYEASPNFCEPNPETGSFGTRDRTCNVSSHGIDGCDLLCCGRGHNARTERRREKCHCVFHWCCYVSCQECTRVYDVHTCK
Genome polyprotein, sequence (P29990 2492-3391 limits assumed): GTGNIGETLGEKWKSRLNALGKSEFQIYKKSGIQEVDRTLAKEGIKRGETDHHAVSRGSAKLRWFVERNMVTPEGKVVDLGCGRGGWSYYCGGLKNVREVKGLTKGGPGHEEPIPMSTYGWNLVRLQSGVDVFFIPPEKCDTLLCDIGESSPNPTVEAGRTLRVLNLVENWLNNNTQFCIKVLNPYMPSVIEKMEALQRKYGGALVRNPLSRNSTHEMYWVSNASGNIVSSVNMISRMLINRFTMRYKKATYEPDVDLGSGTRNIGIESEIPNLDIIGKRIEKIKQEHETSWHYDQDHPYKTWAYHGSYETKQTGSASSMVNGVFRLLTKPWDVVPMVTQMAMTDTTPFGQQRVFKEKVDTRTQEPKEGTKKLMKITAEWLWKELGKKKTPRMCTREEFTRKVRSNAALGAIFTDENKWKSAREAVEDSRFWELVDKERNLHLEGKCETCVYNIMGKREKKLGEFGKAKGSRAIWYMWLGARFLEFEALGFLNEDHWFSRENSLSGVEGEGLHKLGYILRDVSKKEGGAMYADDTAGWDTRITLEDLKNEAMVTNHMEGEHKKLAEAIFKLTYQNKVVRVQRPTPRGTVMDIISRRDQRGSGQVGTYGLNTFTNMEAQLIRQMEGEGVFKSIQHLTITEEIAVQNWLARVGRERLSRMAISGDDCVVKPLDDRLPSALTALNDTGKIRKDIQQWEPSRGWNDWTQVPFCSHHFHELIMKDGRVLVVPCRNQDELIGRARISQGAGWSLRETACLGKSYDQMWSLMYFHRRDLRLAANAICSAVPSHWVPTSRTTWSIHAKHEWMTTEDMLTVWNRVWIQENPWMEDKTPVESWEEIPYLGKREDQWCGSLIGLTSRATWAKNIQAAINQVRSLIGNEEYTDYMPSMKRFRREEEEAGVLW

SMILES: Cc1ccc(-n2nc3c(N4CCC(C(=O)NCc5ccc(C)o5)CC4)nnc(C)c3c2C)cc1
- IC50 [1]: 23 µM (inactive)

SMILES: CN(C)C(CNC(=O)c1ccccc1OCc1ccc(Cl)cc1)c1ccco1 (stereo unspecified)
- EC50 [2]: 0.0947 µM (active)

SMILES: CSc1nc(-c2ccc(Cl)cc2)nn1S(=O)(=O)c1ccccc1
- EC50 (cells [3]): > 29.9 µM (inactive)
- IC50 (cells [4]): > 29.9 µM (inactive)

SMILES: O=C(CN1CC(=O)Oc2ccccc21)OCC(=O)c1ccc(Br)cc1
- IC50 (Nonstructural protein 1): 1.61 µM (active)

SMILES: N#C/C(=C\c1cccc(Cl)c1)C(=O)c1ccccc1
- IC50 (Genome polyprotein): 64.1 µM (active)

SMILES: Cc1n[nH]c(=S)n(/N=C/c2ccccn2)c1=O
- IC50 (Nonstructural protein 1): 6.08 µM (active)

SMILES: CN(C)S(=O)(=O)c1ccc(C(=O)OCC(=O)c2ccc3c(c2)NC(=O)CO3)cc1
- IC50 [1]: 29.3 µM (inactive)

SMILES: O=C(O)C1C2C=CC(C2)C1C(=O)NCCc1cccc(Cl)c1 (stereo unspecified)
- EC50 [5]: > 53 µM (inactive)
- EC50 (cells [3]): > 29.9 µM (inactive)
- IC50 [6]: > 47.1 µM (inactive)
- IC50 (cells [4]): > 29.9 µM (inactive)

SMILES: N=c1c2c(n(Cc3ccc(Cl)c(Cl)c3)c3c1CCC3)CCCC2
- IC50 [7]: > 80 µM (inactive)
- EC50 [8]: 28.9 µM (inconclusive)
- AC50 (INS1): 2.78 µM (active)
- EC50 (BJ [9]): 11.9 µM (active)
- EC50 (BJ [10]): > 150 µM (not active)
- EC50 [11]: > 60 µM (not active)
- EC50 (BJ [12]): 14.1 µM (inconclusive)
- EC50 [13]: 0.152 µM (active)

SMILES: Cc1cc(Nc2cccc(O)c2)c2ccccc2n1
- EC50 [2]: 5.31 µM (active)

SMILES: Cc1ccsc1CNc1ncnc2ccc(-c3c(C)noc3C)cc12
- IC50 [14]: > 20 µM (inactive)
- IC50 (Protein Wnt-3a): 14.8 µM (active)

SMILES: N#Cc1c(Cl)nc2c(c1C#N)CCCC2
- AC50 [15]: 11.8 µM (active)
- EC50 [5]: > 53 µM (inactive)
- IC50 [6]: > 47.1 µM (inactive)
